Starred links: 1 amine or outer side, 2 acyl side, 3 side chain; linkers in the order of their positions; H or OH if unused. Non-standard residues stand in square brackets, D forms with d. Residues, ends and D or L forms follow the SMILES beside them. *: point of attachment. NH(1S,2S-2-CONH2-cPent) = NC(=O)[C@H]1CCC[C@@H]1N*; β3hW = N[C@H](CC(=O)O)Cc1c[nH]c2ccccc12; X12 = O=C([C@H]1CCC[C@@H]1N[*:1])[*:2]; X13 = O=C([C@H]1CNC[C@@H]1N[*:1])[*:2]; ACPC(1S,2S) = N[C@H]1CCC[C@@H]1C(=O)*; hArg = N=C(N)NCCCC[C@H](N)C(=O)O; β3hE = N[C@@H](CCC(=O)O)CC(=O)O; β3hF = N[C@H](CC(=O)O)Cc1ccccc1; X14 = O=C(C1CCCC1N[*:1])[*:2]; β3hK = NCCCC[C@H](N)CC(=O)O; β3hM = CSCC[C@H](N)CC(=O)O; β3hD = NC(CC(=O)O)CC(=O)O; β3hS = N[C@@H](CO)CC(=O)O; Aib = CC(C)(N)C(=O)O
Target: T1, PTHR (Homo sapiens, UniProt Q03431)
T1 construct: expressed in transfected cells
T1 sequence (Q03431 27-593): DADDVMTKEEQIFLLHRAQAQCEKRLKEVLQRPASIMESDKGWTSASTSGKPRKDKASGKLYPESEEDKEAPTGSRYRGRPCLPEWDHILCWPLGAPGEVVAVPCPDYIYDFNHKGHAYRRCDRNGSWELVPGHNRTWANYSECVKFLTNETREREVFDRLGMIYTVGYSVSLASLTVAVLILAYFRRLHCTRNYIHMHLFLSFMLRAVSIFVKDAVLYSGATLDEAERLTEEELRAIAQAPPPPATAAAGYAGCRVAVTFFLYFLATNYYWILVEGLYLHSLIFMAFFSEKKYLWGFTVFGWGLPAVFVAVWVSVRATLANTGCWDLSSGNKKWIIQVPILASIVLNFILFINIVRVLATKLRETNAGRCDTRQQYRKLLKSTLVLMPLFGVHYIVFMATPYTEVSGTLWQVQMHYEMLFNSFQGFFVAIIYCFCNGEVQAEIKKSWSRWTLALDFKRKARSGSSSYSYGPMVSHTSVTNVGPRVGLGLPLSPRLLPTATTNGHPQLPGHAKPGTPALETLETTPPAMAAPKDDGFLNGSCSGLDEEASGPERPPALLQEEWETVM
Test: cAMP induction potency, N-terminal modifications and cyclic constraints (Tables 9, 10, 13)
Format: cell-based
Experimental: For cAMP dose-response assays, monolayers of confluent HEK 293 cells were pre-incubated with buffer containing d-luciferin (0.5 mM) in 96 well plates at room temperature until a stable baseline level of luminescence was established (30 min). Varying concentrations of agonist were then added, and the time course of luminescence response was recorded using a Perkin Elmer plate reader following α/β-peptide addition.

| Fold PTH (Table 10) | Fold PTH (Table 9) | Compound | further results |
| --- | --- | --- | --- |
| 21.8 |  | CC[C@H](C)[C@H](NC(=O)[C@H](CCC(=O)O)NC(=O)C(C)(C)NC(=O)[C@@H](NC(=O)[C@H]1CCC[C@@H]1N)C(C)C)C(=O)N[C@@H](CCC(N)=O)C(=O)N[C@H]1CCC[C@@H]1C(=O)N[C@@H](CCSC)C(=O)N[C@@H](Cc1c[nH]cn1)C(=O)N[C@@H](CCC(N)=O)C(=O)N[C@@H](CCCCNC(=N)N)C(=O)N[C@@H](C)C(=O)N[C@@H](CCCCN)C(=O)N[C@H]1CCC[C@@H]1C(=O)N[C@@H](CC(C)C)C(=O)N[C@@H](CC(N)=O)C(=O)N[C@@H](CO)C(=O)N[C@H]1CCC[C@@H]1C(=O)N[C@@H](CCCNC(=N)N)C(=O)N[C@@H](CCCNC(=N)N)C(=O)N[C@H](C(=O)N[C@H]1CNC[C@@H]1C(=O)N[C@@H](Cc1c[nH]c2ccccc12)C(=O)N[C@@H](CC(C)C)C(=O)N[C@@H](CCCNC(=N)N)C(=O)N[C@H]1CNC[C@@H]1C(=O)N[C@@H](CCCCN)C(=O)N[C@@H](CC(C)C)C(=O)N[C@@H](CCC(N)=O)C(=O)N[C@H]1CCC[C@@H]1C(=O)N[C@H](C(=O)N[C@@H](Cc1c[nH]cn1)C(=O)N[C@@H](CC(N)=O)C(=O)N[C@H]1CCC[C@@H]1C(N)=O)C(C)C)C(C)C [M-FcycD6_ACPC(1,7), XVUEIQXMHQ^hRAKXLNSXRRVZWLRZKLQXVHNX-NH2] ({ACPC(1S,2S)}-V[Aib]EIQ[X12]MHQ[hArg]AK[X12]LNS[X12]RRV[X13]WLR[X13]KLQ[X12]VHN-{NH(1S,2S-2-CONH2-cPent)}; N-terminus assumed) |  |
|  |  | CSCC[C@H](NC(=O)[C@H]1CCC[C@@H]1NC(=O)[C@H](CCC(N)=O)NC(=O)[C@H]1CCC[C@@H]1NC(=O)[C@H](CCC(=O)O)NC(=O)[C@H](CO)NC(=O)[C@@H](NC(=O)C[C@@H](N)CO)C(C)C)C(=O)N[C@@H](Cc1c[nH]cn1)C(=O)N[C@@H](CC(N)=O)C(=O)N[C@@H](CC(C)C)C(=O)NCC(=O)N[C@@H](CCCCN)C(=O)N[C@H]1CCC[C@@H]1C(=O)N[C@@H](CC(C)C)C(=O)N[C@@H](CC(N)=O)C(=O)N[C@@H](CO)C(=O)N[C@H]1CCC[C@@H]1C(=O)N[C@@H](CCC(=O)O)C(=O)N[C@@H](CCCNC(=N)N)C(=O)N[C@H](C(=O)N[C@H]1CNC[C@@H]1C(=O)N[C@@H](Cc1c[nH]c2ccccc12)C(=O)N[C@@H](CC(C)C)C(=O)N[C@@H](CCCNC(=N)N)C(=O)N[C@H]1CNC[C@@H]1C(=O)N[C@@H](CCCCN)C(=O)N[C@@H](CC(C)C)C(=O)N[C@@H](CCC(N)=O)C(=O)N[C@H]1CCC[C@@H]1C(=O)N[C@H](C(=O)N[C@@H](Cc1c[nH]cn1)C(=O)N[C@@H](CC(N)=O)C(=O)N[C@H]1CCC[C@@H]1C(N)=O)C(C)C)C(C)C [FcycD6_β^3Ser1, ACPC(5, 7, SVSEXQXMHNLGKXLNSXERVZWLRZKLQXVHNX-NH2] (H-[β3hS]VSE[X12]Q[X12]MHNLGK[X12]LNS[X12]ERV[X13]WLR[X13]KLQ[X12]VHN-{NH(1S,2S-2-CONH2-cPent)}; N-terminus assumed) | EC50 (Table 13, non M-PTH analogs, read-out: cAMP, EC50 nM ± SEM): 0.79 nM |
| 3.8 |  | CSCC[C@H](NC(=O)[C@H]1CCC[C@@H]1NC(=O)[C@H](CCC(N)=O)NC(=O)[C@H]1CCC[C@@H]1NC(=O)[C@H](CCC(=O)O)NC(=O)C(C)(C)NC(=O)[C@@H](NC(=O)[C@H]1CCC[C@@H]1N)C(C)C)C(=O)N[C@@H](Cc1c[nH]cn1)C(=O)N[C@@H](CCC(N)=O)C(=O)N[C@@H](CCCCNC(=N)N)C(=O)N[C@@H](C)C(=O)N[C@@H](CCCCN)C(=O)N[C@H]1CCC[C@@H]1C(=O)N[C@@H](CC(C)C)C(=O)N[C@@H](CC(N)=O)C(=O)N[C@@H](CO)C(=O)N[C@H]1CCC[C@@H]1C(=O)N[C@@H](CCCNC(=N)N)C(=O)N[C@@H](CCCNC(=N)N)C(=O)N[C@H](C(=O)N[C@@H](CCC(=O)O)CC(=O)N[C@@H](Cc1c[nH]c2ccccc12)C(=O)N[C@@H](CC(C)C)C(=O)N[C@@H](CCCNC(=N)N)C(=O)N[C@H]1CNC[C@@H]1C(=O)N[C@@H](CCCCN)C(=O)N[C@@H](CC(C)C)C(=O)N[C@@H](CCC(N)=O)C(=O)N[C@@H](CC(=O)O)CC(=O)N[C@H](C(=O)N[C@@H](Cc1c[nH]cn1)C(=O)N[C@@H](CC(N)=O)C(=O)N[C@H]1CCC[C@@H]1C(N)=O)C(C)C)C(C)C [M-X1,5,7-CycD6, HXVUEXQXMHQ^hRAKXLNSXRRVEWLRZKLQDVHNX-NH2] ({ACPC(1S,2S)}-V[Aib]E[X12]Q[X12]MHQ[hArg]AK[X12]LNS[X12]RRV[β3hE]WLR[X13]KLQ[β3hD]VHN-{NH(1S,2S-2-CONH2-cPent)}; N-terminus assumed) |  |
| 5.4 |  | CC[C@H](C)[C@H](NC(=O)[C@H](CCC(=O)O)NC(=O)[C@H](C)NC(=O)[C@@H](NC(=O)[C@H](C)N)C(C)C)C(=O)N[C@@H](CCC(N)=O)C(=O)NC1CCCC1C(=O)N[C@@H](CCSC)C(=O)N[C@@H](Cc1c[nH]cn1)C(=O)N[C@@H](CCC(N)=O)C(=O)N[C@@H](CCCCNC(=N)N)C(=O)N[C@@H](C)C(=O)N[C@@H](CCCCN)C(=O)N[C@H](CC(=O)N[C@@H](CC(C)C)C(=O)N[C@@H](CC(N)=O)C(=O)N[C@@H](CO)C(=O)N[C@@H](CCSC)CC(=O)N[C@@H](CCCNC(=N)N)C(=O)N[C@@H](CCCNC(=N)N)C(=O)N[C@H](C(=O)N[C@@H](CCC(=O)O)CC(=O)N[C@@H](Cc1c[nH]c2ccccc12)C(=O)N[C@@H](CC(C)C)C(=O)N[C@@H](CCCNC(=N)N)C(=O)N[C@@H](CCCCN)CC(=O)N[C@@H](CCCCN)C(=O)N[C@@H](CC(C)C)C(=O)N[C@@H](CCC(N)=O)C(=O)N[C@@H](CC(=O)O)CC(=O)N[C@H](C(=O)N[C@@H](Cc1c[nH]cn1)C(=O)N[C@@H](CC(N)=O)C(=O)N[C@H](CC(N)=O)Cc1ccccc1)C(C)C)C(C)C)Cc1c[nH]c2ccccc12 (stereo partly drawn) [M-D6] (H-AVAEIQ[X14]MHQ[hArg]AK[β3hW]LNS[β3hM]RRV[β3hE]WLR[β3hK]KLQ[β3hD]VHN[β3hF]-NH2; N-terminus assumed) |  |
|  | 266 | CSCC[C@H](NC(=O)[C@H]1CCC[C@@H]1NC(=O)[C@H](CCC(N)=O)NC(=O)[C@H]1CCC[C@@H]1NC(=O)[C@H](CCC(=O)O)NC(=O)[C@H](CO)NC(=O)[C@@H](NC(=O)[C@H]1CCC[C@@H]1N)C(C)C)C(=O)N[C@@H](Cc1c[nH]cn1)C(=O)N[C@@H](CC(N)=O)C(=O)N[C@@H](CC(C)C)C(=O)NCC(=O)N[C@@H](CCCCN)C(=O)N[C@H]1CCC[C@@H]1C(=O)N[C@@H](CC(C)C)C(=O)N[C@@H](CC(N)=O)C(=O)N[C@@H](CO)C(=O)N[C@H]1CCC[C@@H]1C(=O)N[C@@H](CCC(=O)O)C(=O)N[C@@H](CCCNC(=N)N)C(=O)N[C@H](C(=O)N[C@@H](CCC(=O)O)CC(=O)N[C@@H](Cc1c[nH]c2ccccc12)C(=O)N[C@@H](CC(C)C)C(=O)N[C@@H](CCCNC(=N)N)C(=O)N[C@H]1CNC[C@@H]1C(=O)N[C@@H](CCCCN)C(=O)N[C@@H](CC(C)C)C(=O)N[C@@H](CCC(N)=O)C(=O)N[C@@H](CC(=O)O)CC(=O)N[C@H](C(=O)N[C@@H](Cc1c[nH]cn1)C(=O)N[C@@H](CC(N)=O)C(=O)N[C@H]1CCC[C@@H]1C(N)=O)C(C)C)C(C)C [CycD6_ACPC(1,5,7), XVSEXQXMHNLGKXLNSXERVEWLRZKLQDVHNX-NH2] ({ACPC(1S,2S)}-VSE[X12]Q[X12]MHNLGK[X12]LNS[X12]ERV[β3hE]WLR[X13]KLQ[β3hD]VHN-{NH(1S,2S-2-CONH2-cPent)}; N-terminus assumed) |  |
| 9.7 |  | XVUEXQXMHQ^hRAKWLNSMRRVEWLRKKLQDVHNF.-NH2 [M-X1,5,7-D6] |  |
|  | 8.7 | CC[C@H](C)[C@H](NC(=O)[C@H](CCC(=O)O)NC(=O)[C@H](CO)NC(=O)[C@@H](NC(=O)[C@H]1CCC[C@@H]1N)C(C)C)C(=O)N[C@@H](CCC(N)=O)C(=O)N[C@H]1CCC[C@@H]1C(=O)N[C@@H](CCSC)C(=O)N[C@@H](Cc1c[nH]cn1)C(=O)N[C@@H](CC(N)=O)C(=O)N[C@@H](CC(C)C)C(=O)NCC(=O)N[C@@H](CCCCN)C(=O)N[C@H]1CCC[C@@H]1C(=O)N[C@@H](CC(C)C)C(=O)N[C@@H](CC(N)=O)C(=O)N[C@@H](CO)C(=O)N[C@H]1CCC[C@@H]1C(=O)N[C@@H](CCC(=O)O)C(=O)N[C@@H](CCCNC(=N)N)C(=O)N[C@H](C(=O)N[C@H]1CNC[C@@H]1C(=O)N[C@@H](Cc1c[nH]c2ccccc12)C(=O)N[C@@H](CC(C)C)C(=O)N[C@@H](CCCNC(=N)N)C(=O)N[C@H]1CNC[C@@H]1C(=O)N[C@@H](CCCCN)C(=O)N[C@@H](CC(C)C)C(=O)N[C@@H](CCC(N)=O)C(=O)N[C@H]1CCC[C@@H]1C(=O)N[C@H](C(=O)N[C@@H](Cc1c[nH]cn1)C(=O)N[C@@H](CC(N)=O)C(=O)N[C@H]1CCC[C@@H]1C(N)=O)C(C)C)C(C)C [FcycD6_ACPC(1,7), XVSEIQXMHNLGKXLNSXERVZWLRZKLQXVHNX-NH2] ({ACPC(1S,2S)}-VSEIQ[X12]MHNLGK[X12]LNS[X12]ERV[X13]WLR[X13]KLQ[X12]VHN-{NH(1S,2S-2-CONH2-cPent)}; N-terminus assumed) |  |
|  | 22.6 | XVSEIQXMHNLGKWLNSMERVEWLRKKLQDVHNF-NH2 [D6_ACPC(1,7)] |  |

— patent US10501518B2 (priority 2013, dated 2019)
